The record followed here is PMC8921294, “Inhibition of mitochondrial LonP1 protease by allosteric blockade of ATP binding and hydrolysis via CDDO and its derivatives” (The Journal of Biological Chemistry, 2022).

Broadly, the IC50 is the point on the concentration scale where inhibition reaches its midpoint.

Assay [1] deals with T1, 26S proteasome ATPase.
T1 construct: purified from human embryonic kidney cells (HEK293); purchased Boston Biochem Inc.-R&D Systems E-365; host or cells: HEK293
Nature of the assay: Endpoint ATPase assay, purified 26S proteasome. Format: biochemical, human. The note with it: 26S proteasome 3 nM, Fig. 4A. The source says:
CDDO and CDDO-Methyl (CDDO-Me) were purchased from Cayman Chemical, CDDO-Imidazole (CDDO-Im) was purchased from Tocris. CDDO-anhydride ([20]) and TP-82 ([71]) were synthesized as reported. Other inhibitors in this study were purchased commercially: MG262 (Boston Biochem), bortezomib (LC Labs) and enoxolone (Cayman Chemical). Antibodies recognizing the following antigens were employed in this study: LonP1 (Proteintech, cat. 15440-1-AP), p53 (Calbiochem, cat. 0P43, lot # D00086815), cleaved PARP (Asp214) (BD Biosciences, cat. 552596), procaspase-3 monoclonal antibody (Transduction Laboratories, cat. C31720), actin (Santa Cruz, cat. sc-1615, lot # F0408), heme oxygenase 1 (Santa Cruz, cat. sc-136960, lot # B1516), TFAM kindly provided by Daniel Bogenhagen (Stony Brook University). Human 26S and 20S proteasome purified from human embryonic kidney cells (HEK293) were purchased commercially (Boston Biochem Inc.-R&D Systems, cat. E-365, lot # 35730210 and cat. E-360, lot # 16918510, respectively).
ADP-Glo (Promega) assays were performed according to the manufacturer's protocols. […] Assay reagents were used to quench further ATPase activity and generate luminescence signals proportional to the concentration of ADP formed. Background (no enzyme control) luminescence values were subtracted, and resultant values were reported as a percentage of the no drug control (100%). […]

In assay [2] the target is T2, LonP1 F547A/C637V (Homo sapiens, UniProt P36776, C637V/F547A).
T2 construct: hexa-histidine (N); made in house; host or cells: Rosetta 2 E. coli
T2 sequence (P36776 68-959 F547A/C637V): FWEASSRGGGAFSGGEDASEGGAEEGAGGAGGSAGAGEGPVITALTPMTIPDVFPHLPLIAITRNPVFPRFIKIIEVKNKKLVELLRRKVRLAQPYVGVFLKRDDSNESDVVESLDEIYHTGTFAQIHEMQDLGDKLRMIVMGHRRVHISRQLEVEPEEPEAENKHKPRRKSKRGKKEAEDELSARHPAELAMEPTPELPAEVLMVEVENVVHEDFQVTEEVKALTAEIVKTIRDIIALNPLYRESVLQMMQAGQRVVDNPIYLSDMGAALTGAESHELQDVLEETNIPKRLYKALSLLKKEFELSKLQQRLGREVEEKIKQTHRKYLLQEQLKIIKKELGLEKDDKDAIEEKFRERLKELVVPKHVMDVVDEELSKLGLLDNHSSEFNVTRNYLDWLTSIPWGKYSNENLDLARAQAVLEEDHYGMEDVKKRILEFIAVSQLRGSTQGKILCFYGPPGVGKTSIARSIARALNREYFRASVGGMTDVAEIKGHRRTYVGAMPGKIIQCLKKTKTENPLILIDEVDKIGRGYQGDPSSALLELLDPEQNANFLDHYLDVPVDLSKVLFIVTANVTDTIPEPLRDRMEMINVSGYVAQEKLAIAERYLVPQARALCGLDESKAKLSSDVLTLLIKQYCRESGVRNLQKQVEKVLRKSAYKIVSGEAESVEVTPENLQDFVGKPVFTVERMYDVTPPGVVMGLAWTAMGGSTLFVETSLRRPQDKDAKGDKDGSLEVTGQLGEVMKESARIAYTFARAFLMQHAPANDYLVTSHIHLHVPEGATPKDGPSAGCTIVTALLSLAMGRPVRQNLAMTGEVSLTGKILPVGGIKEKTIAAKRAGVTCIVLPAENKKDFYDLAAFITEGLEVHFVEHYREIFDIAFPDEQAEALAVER
Description: Endpoint ATPase assay, LonP1 F547A/C637V. Format: biochemical. The procedure: Human mitochondrial LonP1 and mutants lacking the predicted mitochondrial targeting sequence were fused to an N-terminal hexa-histidine affinity tag, expressed in Rosetta 2 E. Coli, and purified using a nickel agarose column as previously described ([72]) and protein concentration and buffer exchange carried out using Amicon Ultra centrifugal filtration. LonP1 mutant constructs were obtained from the PCR-based QuikChange Site-Directed Mutagenesis Kit.
ADP-Glo (Promega) assays were performed according to the manufacturer's protocols. Purified wild-type or mutant LonP1 (400 nM monomer), the 26S proteasome (3 nM), or no enzyme controls were preincubated in 96-well plates (60 min, 25 °C) with ten different concentrations of CDDO and its derivatives, TP-82, enoxolone (5 μM) or DMSO vehicle control in buffer (40 mM Tris-HCl (pH 7.5), 20 mM MgCl2, 0.1 mg/ml BSA and 5% DMSO). The 26S and 20S proteasome were also assayed at 0, 0.75, 1.5, 3, 6, and 12 nM in the absence of CDDO derivatives. […] Assay reagents were used to quench further ATPase activity and generate luminescence signals proportional to the concentration of ADP formed. Background (no enzyme control) luminescence values were subtracted, and resultant values were reported as a percentage of the no drug control (100%). […]

Turning to `CC1(C)CC[C@]2(C(=O)O)CC[C@]3(C)[C@H](C(=O)C=C4[C@@]5(C)C=C(C#N)C(=O)C(C)(C)[C@@H]5CC[C@]43C)[C@@H]2C1` [CDDO, 2-cyano-3,12-dioxooleana-1,9(11)-dien-28-oic acid], the “Inhibition of ATP hydrolysis by the 26S proteasome” value in assay [1] is listed as “failed to inhibit”. The “Fold increase in inhibition compared with WT” value in assay [2] is on record as 7.4. The concentration for half-maximal inhibition (IC50) in assay [2] (end-point ATPase assay, read-out: CDDO IC50) was 1900 ± 300 nM.
